Laboratory results from paper PMC3974779, “Pterostilbene-Isothiocyanate Conjugate Suppresses Growth of Prostate Cancer Cells Irrespective of Androgen Receptor Status” (PLoS ONE, 2014).
Residues, ends and D or L forms follow the SMILES beside them. *: point of attachment. Cbz = O=C(OCc1ccccc1)*; CH2F = FC*

How the values were obtained:
SRC-1 in LNCaP cells = assay: Immunoblot of AR co-activators; format: cell-based, human; conditions: DHT treatment
Protocol: (§1) The whole-cell lysates were prepared as described previously in immunoprecipitation (IP) buffer containing 50 mM Tris-HCl (pH 8.0), 150 mM NaCl, 5 mM EDTA, and 1% Triton X-100. Protein aliquots of 500 μg were then incubated overnight at 4°C using 2 μg of antibody directed against AR. The Protein A-Cl Agarose beads were then added and further incubated for 6 h at 4°C. The immunoprecipitates were washed four times with the IP buffer and the immunocomplexes were recovered by boiling in SDS sample buffer. Finally the western blot was carried out using anti-AR, anti-SRC-1 and anti-GRIP-1 antibodies (Santa Cruz, CA, USA). For western blot analysis, the cell lysates were prepared after harvesting them in lysis buffer. About 40 μg of total protein was electrophoresed by 12% SDS-PAGE, and the western blotting was carried out using standard protocol. In brief, the analyzed proteins were transferred to nylon membranes. The blots were then blocked with TBST buffer (20 mM Tris-Cl, pH 7.5, 150 mM sodium chloride, 0.05% Tween-20) containing 5% skim milk powder. They were then washed with TBST buffer and incubated overnight at 4°C with the same buffer containing appropriate amounts of primary antibodies: caspase-3, Bax, Bcl-2, Akt, p-Akt, ERK, p-ERK, AR, SRC-1, GRIP-1 (1∶500) and β-actin (1∶1000). The blots were then washed and incubated with anti-rabbit secondary antibody (1∶20,000) conjugated with horseradish peroxidase (HRP). Color development was performed in the dark by using an ECL kit (Amersham, GE Healthcare, Buckinghamshire, UK). The developed blots were subjected to densitometric analysis by ImageJ 1.43 software (NIH, USA) using β-actin as internal control.

GRIP-1 in LNCaP cells = assay: Immunoblot of AR co-activators; format: cell-based, human; conditions: DHT treatment
Protocol: as §1

[1] = tested on: p53 protein in LNCaP cells; assay: Immunoblot of p53 with p53 inhibitor; format: cell-based, human; conditions: 20 μM PFT-α, 20 and 40 μM conjugate, 24 h
Protocol: The whole-cell lysates were prepared as described previously in immunoprecipitation (IP) buffer containing 50 mM Tris-HCl (pH 8.0), 150 mM NaCl, 5 mM EDTA, and 1% Triton X-100. Protein aliquots of 500 μg were then incubated overnight at 4°C using 2 μg of antibody directed against AR. The Protein A-Cl Agarose beads were then added and further incubated for 6 h at 4°C. The immunoprecipitates were washed four times with the IP buffer and the immunocomplexes were recovered by boiling in SDS sample buffer. Finally the western blot was carried out using anti-AR, anti-SRC-1 and anti-GRIP-1 antibodies (Santa Cruz, CA, USA). For western blot analysis, the cell lysates were prepared after harvesting them in lysis buffer. About 40 μg of total protein was electrophoresed by 12% SDS-PAGE, and the western blotting was carried out using standard protocol. In brief, the analyzed proteins were transferred to nylon membranes. […]
Since there was no significant difference in the number of apoptotic cells between conjugate treated LNCaP (wild type p53) and PC-3 (p53 null) cells (p<0.05), it was intriguing to check if p53 has any role in conjugate induced apoptosis of PCa cells. […] Next we determined the effect of p53-inhibition on conjugate induced cell death by using MTT assay.

CHO cells = assay: MTT cytotoxicity assay; format: cell-based; conditions: Cricetulus griseus, CHO noncancer cells, 24 h exposure, read-out: IC50 value (50% growth inhibition)
Protocol: (§2) MTT assay was carried out as described previously. In brief, 5×10^3 cells in 200 μl of medium were seeded in 96-well plates (Griener, Germany). After 24 h, the cells were treated with various concentrations (0.1, 1, 10, 100 and 1000 μM) of RESV, PTER and conjugate. The control cells were treated with 0.1% DMSO (vehicle control). The cultured cells were assayed after 24 h by adding 20 μl of 5 mg/ml MTT followed by incubating at 37°C for 4 h. The MTT containing media was then aspirated and 200 μl DMSO (Himedia, Mumbai, India) was added to dissolve the formazone crystals. The optical density (OD) was measured at 570 nm using ELISA plate reader (Fluostar optima, BMG Labtech, Germany). The percentage inhibition was calculated as: [drawing 1]
(§3) The dose response curve and IC50 values were obtained by nonlinear regression analysis [non-linear regression (sigmoidal dose response with variable slope)] using Graph Pad Prism, version 5.02 software (Graph Pad Software Inc., CA, USA).

COS-1 cells = assay: MTT cytotoxicity assay; format: cell-based; conditions: Chlorocebus aethiops, COS-1 noncancer cells, 24 h exposure, read-out: IC50 value (50% growth inhibition)
Protocol: as §2, §3

LNCaP cells [2] = assay: MTT cytotoxicity assay; format: cell-based; conditions: Homo sapiens, 24 h, 24 h exposure, mean ± SEM, read-out: IC50 value (50% growth inhibition)
Protocol: as §2, §3

PC-3 cells [3] = assay: MTT cytotoxicity assay; format: cell-based; conditions: Homo sapiens; PC-3, MTT, 24 h exposure, mean ± SEM; read-out: IC50 value (50% growth inhibition)
Protocol: as §2, §3

[4] = tested on: AR protein in LNCaP cells; assay: Immunoblot of AR protein; format: cell-based, human
Protocol: as §1

[5] = tested on: caspase-8 activity in PC-3 cells; assay: Caspase colorimetric protease assay; format: cell-based, human; conditions: PC-3, 24 h, high dose
Protocol: (§4) Caspase activity was determined using ApoTarget caspase colorimetric protease assay sampler kit (KHZ1001; Invitrogen) according to the manufacturer’s instructions. Briefly, both the PCa cells were treated with increasing doses of conjugate and RESV for 24 h. The cells were then collected, washed in PBS, and lysed in 50 μl lysis buffer on ice for 10 min. After centrifugation, the supernatant containing 150 μg proteins were incubated with 200 μM of caspase-3 (Ac-DEVD-pNA), caspase-8 (Ac-IETD-pNA) and caspase-9 (Ac-LEHD-pNA) substrates respectively in reaction buffer at 37°C for 1 h in 96 well flat bottom plate. Levels of released pNA were then measured at 405 nm wavelength with ELISA plate reader (Fluostar optima, BMG Labtech, Germany). The fold-increase in caspase-3, -8, and -9 activities were determined by direct comparison to the level of un-induced control. For the caspase inhibitor assay, cells were pretreated with a synthetic pan-caspase inhibitor (Z-VAD-FMK), caspase-8 inhibitor (Z-IETD-FMK) and caspase-9 inhibitor (Z-LEHD-FMK) for 1 h before the addition of conjugate and the cell death were analyzed by MTT assay as discussed earlier.

[6] = tested on: caspase-3 activity in PC-3 cells; assay: Caspase colorimetric protease assay; format: cell-based, human; conditions: PC-3, 10, 20 and 40 μM, 24 h
Protocol: as §4

[7] = tested on: caspase-9 activity in LNCaP cells; assay: Caspase colorimetric protease assay; format: cell-based, human; conditions: 24 h
Protocol: as §4

[8] = tested on: caspase-9 activity in PC-3 cells; assay: Caspase colorimetric protease assay; format: cell-based, human; conditions: PC-3, 10, 20 and 40 μM, 24 h
Protocol: as §4

[9] = tested on: caspase-3 activity in LNCaP cells; assay: Caspase colorimetric protease assay; format: cell-based, human; conditions: 24 h
Protocol: as §4

p-Akt in PC-3 cells = assay: Immunoblot of Akt phosphorylation; format: cell-based, human; conditions: 24 h
Protocol: as §1
(§5) The siRNAs against human Akt and ERK and control siRNA were purchased commercially from Santa Cruz Biotechnology (USA). The LNCaP and PC-3 PCa cells were transfected with siRNAs (at a final concentration of 100 nM) using polyfect transfection reagent (Qiagen, CA, USA) according to manufacturer’s instructions. After 24 h of transfection, the cells were washed properly and replaced with fresh medium. The cells were then treated with 20 μM conjugate for 24 h, and finally protein lysates were prepared on completion of treatment. The levels of p-Akt, p-ERK and cleaved caspase-3 expressions were detected by Western blot analysis.

p-Akt in LNCaP cells = assay: Immunoblot of Akt phosphorylation; format: cell-based, human; conditions: below 20 μM, 24 h
Protocol: as §1, §5

p-ERK in PC-3 cells = assay: Immunoblot of ERK phosphorylation; format: cell-based, human; conditions: 24 h
Protocol: as §1, §5

AR in LNCaP cells = assay: Immunofluorescence staining of endogenous AR; format: cell-based, human; conditions: varying doses of conjugate, 20 μM RESV, DHT
Protocol: The cells were then incubated with AR rabbit polyclonal antibody diluted 1∶200 in blocking buffer for 1 h at RT. Finally, the cells were washed with PBS and incubated with FITC-labelled anti-rabbit secondary antibody diluted 1∶1000 in blocking buffer for 30 min at room temperature. The cells were then observed under a fluorescence microscope (Zeiss, Axiovert 25, Germany).

[10] = tested on: caspase-3 expression in LNCaP cells; assay: Immunoblot analysis of apoptotic markers; format: cell-based, human; conditions: highest dose (40 μM), immunoblot densitometry
Protocol: as §1

[11] = tested on: caspase-3 expression in PC-3 cells; assay: Immunoblot analysis of apoptotic markers; format: cell-based, human; conditions: PC-3, highest dose (40 μM), immunoblot densitometry
Protocol: as §1

LNCaP cells [12] = assay: Caspase inhibitor assay (conjugate-induced cell death, MTT); format: cell-based, human; conditions: 20 μM caspase inhibitor 1 h before 20 μM conjugate, MTT after 24 h
Protocol: as §4
(§6) Figure 2 The conjugate induces G2/M phase arrest and caspase dependent cell death in prostate cancer cells. Cell cycle distribution of (A) PC-3 and (B) LNCaP cells upon treatment with varying doses of conjugate. Results are presented as mean ± SEM of three independent experiments. *represents statistically significant difference with respect to vehicle treated PC-3 and LNCaP cells respectively corresponding to each stage of cell cycle at p<0.05. (C) The effects of varying doses of conjugate (left panel) and resveratrol (right panel) on caspase-8, -9 and -3 activities in PC-3 and (D) LNCaP cells. Results are the mean ± SEM of three independent experiments. *represents statistically significant difference with respect to control cells for respective caspases tested at p<0.05. (E) The effect of caspase inhibitors on conjugate-induced cell death in PC-3 and (F) LNCaP cells. The cells were pre-treated with 20 μM of respective caspase inhibitors: Z-LEHDFMK (caspase-9 inhibitor); Z-IETDFMK (caspase-8 inhibitor); and Z-VAD-FMK (general caspase inhibitor) for 1 h before the addition of 20 μM conjugate. Cell death was measured 24 h after conjugate treatment using MTT assay. Data are the mean ± SEM of three independent experiments. *and # represents statistically significant difference with respect to control (vehicle) and conjugate treated cells respectively for each cell lines at p<0.05. ns, non-significant.

PC-3 cells [13] = assay: as above; format: cell-based, human; conditions: PC-3, 20 μM caspase inhibitor 1 h before 20 μM conjugate, MTT after 24 h
Protocol: as §4, §6

C[C@]12CCC(=O)C[C@@H]1CC[C@@H]1[C@@H]2CC[C@]2(C)[C@@H](O)CC[C@@H]12 [DHT, dihydrotestosterone, reference compound]
increase in expression of SRC-1 (SRC-1 in LNCaP cells): 1.2 fold
change in expression of GRIP-1 (GRIP-1 in LNCaP cells): no significant change

Cc1ccc(C(=O)Cn2c3c(sc2=N)CCCC3)cc1 [PFT-α, pifithrin-α, reference compound]
expression of p53 protein [1]: significantly down regulated

COc1cc(/C=C/c2ccc(O)cc2)cc(OC)c1 [Pterostilbene]
IC50 (CHO cells): > 100 µM
IC50 (COS-1 cells): > 100 µM
IC50 (LNCaP cells [2]): ~66.4 µM
IC50 (PC-3 cells [3]): 75 ± 2.55 µM

Oc1ccc(/C=C/c2cc(O)cc(O)c2)cc1 [Resveratrol, reference compound]
inhibition of AR protein levels ([4]; 10 and 20 μM, absence of DHT): did not show any significant inhibition
inhibition of DHT induced AR protein levels ([4]; till 20 μM, 10 nM DHT): did not show any significant inhibition
caspase-8 activity [5]: marginal increase
caspase-3 enzyme activity [6]: dose-dependent augmentation
caspase-9 activity [7]: significant increase
caspase-9 enzyme activity [8]: dose-dependent augmentation
caspase-3 activity [9]: significant increase
decrease in level of p-Akt (p-Akt in PC-3 cells; PC-3, 20 μM): about 1.2 folds
decrease in level of p-Akt (p-Akt in PC-3 cells; PC-3, 40 μM): ~1.6 folds
effect on level of p-Akt (p-Akt in LNCaP cells): negligible effects
reduction in level of p-ERK (p-ERK in PC-3 cells; PC-3, 20 μM): 1.3 folds
reduction in level of p-ERK (p-ERK in PC-3 cells; PC-3, 40 μM): 1.8 folds
IC50 (CHO cells): > 100 µM
IC50 (COS-1 cells): > 100 µM
IC50 (LNCaP cells [2]): ~82.2 µM
IC50 (PC-3 cells [3]): 95 ± 1.13 µM
AR immunofluorescence intensity (AR in LNCaP cells): marginal decrease
enhancement of caspase-3 expression [10]: 4.5 folds
enhancement of caspase-3 expression [11]: 3.5 folds

COC(=O)CC[C@H](NC(=O)[C@H](CC(C)C)NC(=O)OCc1ccccc1)C(=O)N[C@@H](Cc1c[nH]cn1)C(=O)N[C@@H](CC(=O)OC)C(=O)CF [Z-LEHD-FMK] (Cbz-LE(OMe)HD(OMe)-CH2F)
inhibition of conjugate induced cell death/apoptosis (LNCaP cells [12]): almost completely blocked

Cbz-Val-Ala-Asp-CH2F
inhibition of conjugate induced cell death/apoptosis (LNCaP cells [12]): significant inhibition of cell death
inhibition of conjugate induced cell death (PC-3 cells [13]): significant inhibition of cell death

Z-IETD-FMK: caspase-8 specific inhibitor
inhibition of conjugate induced cell death/apoptosis (LNCaP cells [12]): only partially inhibited
inhibition of conjugate induced cell death (PC-3 cells [13]): completely ineffective
